Measured values: patent US11440896B2, “Aminoalkyl compound” (Daiichi Sankyo Company, Limited, priority 2018, dated 2022)

Columns and labels:
[1] = Hairless mouse skin permeation test; format: in vitro ADME; set-up: unit not given here; details: hairless mouse (HR-1) skin, horizontal diffusion cell, 37° C., donor 3.84 mmol/L in IPM, N=3
Method: (§1) The compounds described in the Examples were dissolved or suspended in isopropyl myristate (IPM) at a concentration of 3.84 mmol/L and the resultant was used.
The frozen skin of a hairless mouse (HR-1 strain, male, 7 weeks old, Japan SLC, Inc.) was thawed at room temperature and, if there was excess subcutaneous fat, the fat was excised with scissors. The horizontal diffusion cell was kept at a constant temperature by flowing water from a thermostatic circulation tank (37° C.) into the external jacket of the cell. The hairless mouse skin was punched out to ϕ24 mm and mounted tightly in the horizontal diffusion cell, 0.9 mL of a receiver solution (McIlvaine buffer containing 40% polyethylene glycol 400) was added to the dermal side (receiver side), and 0.9 mL of a donor solution (the solution or suspension of the compound described in the Example in IPM at a concentration of 3.84 mmol/L) was added to the stratum corneum side (donor side). […]
The compounds in liquids collected in the skin permeation test were quantified. […]
Skin permeation rate (flux, mmol/cm2/hr) and Lag time (hr) were calculated from the slope and X-axis intercept, respectively, of the regression line at steady state from the profile, and used as indicators of skin permeation.

mice (C57BL/6JJmsSlc) = test: Analgesic score by Tail Flick test in mice; format: in vivo; details: Mus musculus, sc, subcutaneous administration in Captisol, dose with an analgesic score of 50%
Method: A Tail Flick analgesic effect metering device (Ugo Basile) and adult mice (C57BL/6JJmsSlc, Japan SLC, Inc.) were used for evaluation. In the Tail Flick test, thermal stimulation was applied to the tail of each animal, and the latency (in seconds) of escape reflection moving the tail was measured. The maximum heat application time was set to 10 seconds in order to prevent burns.
The compounds described in the Examples were dissolved or suspended in Captisol to prepare test samples. Then, test samples at appropriately selected concentrations were administered subcutaneously to the animals (10 mL/kg), and the latency of escape reflection was measured. The latency of escape reflection before test sample administration was set as [pre-dose measurement], and the analgesic score (%) was calculated as [([measurement]−[pre-dose measurement])/(10−[pre-dose measurement])]×100.
The ED50 was determined by calculating a dose with an analgesic score of 50%.

[2] = Dissolution state in isopropyl myristate (IPM); format: physicochemical; details: concentration of 3.84 mmol/L
Method: as §1

SMILES	Flux (skin permeation rate) [1]	ED50 (mice (C57BL/6JJmsSlc)) [mg/kg]	Dissolution state in IPM [2]
CN(C)C[C@@H]1COCC[C@H]1c1cccc(O)c1 (racemic) [Example 1, 3-[(3R*,4R*)-3-(Dimethylaminomethyl)tetrahydropyran-4-yl]phenol]	35.77	1.6	–
CN(C)C[C@@H]1COCC[C@H]1c1cccc(O)c1 (relative stereo) [Example 1, 3-[(3R*,4R*)-3-(Dimethylaminomethyl)tetrahydropyran-4-yl]phenol]	–	–	Dissolved
CN(C)C[C@@H]1CCCC[C@H]1c1cccc(O)c1 [Faxeladol]	17.14	2.7	Suspended
